In ChEMBL document CHEMBL1201862, “PubChem BioAssay data set” (2004):
The source made the active and inactive calls.

Experiments:
[1] = HEp-2 cell cytotoxicity, dose response, cytotoxicity control for RSV inhibitor project, HTS (AID 2410); assay type: functional; settings: human respiratory syncytial virus
[2] = system: Vero; test: cells; assay type: functional, cell-based; settings: Chlorocebus sabaeus
[3] = system: Vero; test: cells; assay type: functional; settings: Chlorocebus sabaeus
[4] = A Cell-Based Counter Screen testing Compounds that Inhibit VEEV TC-83, in strain KU V3526.; assay type: functional
[5] = A Cell-Based Confirmatory Screen for Compounds that Inhibit VEEV, TC-83 (2).; assay type: functional
[6] = Vero 76 cell cytotoxicity, dose response, cytotoxicity control, set 2 (AID 602240); assay type: functional; settings: Venezuelan equine encephalitis virus
[7] = cells
[8] = molecular target: Aspartyl aminopeptidase (Plasmodium falciparum 3D7, UniProt Q8I2J3)
[9] = molecular target: Procathepsin L (Homo sapiens, UniProt P07711)
[10] = molecular target: Large T antigen (Simian virus 40, UniProt P03070); assay type: functional, Betapolyomavirus macacae;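 note: Confirmatory-stage PubChem screen for compounds that inhibit SV40 T antigen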
[11] = microbe, parasite or virus in culture; assay type: functional; settings: Mycobacterium tuberculosis
[12] = molecular target: Mannose-6-phosphate isomerase (Homo sapiens, UniProt P34949); test: human PMI inhibitors, high substrate, primary screen, biochemical, fluorescence intensity, high mannose 6-phosphate (AID 1220)
[13] = molecular target: DNA dC->dU-editing enzyme APOBEC-3A (Homo sapiens, UniProt P31941); test: APOBEC3A DNA deaminase inhibitors, dose response, biochemical (AID 504722); assay type: functional
[14] = molecular target: T1, Hexokinase (Trypanosoma brucei, UniProt Q38C41); test: Confirmation assay for inhibitors of Trypanosoma brucei hexokinase 1-Analogue-first series. [Related pubchem assays (depositor defined):AID1430, AID1632, AID2516, AID2560, AID2579, AID2600, AID449725, AID492951]; assay type: functional
T1 sequence (Q38C41 whole entry): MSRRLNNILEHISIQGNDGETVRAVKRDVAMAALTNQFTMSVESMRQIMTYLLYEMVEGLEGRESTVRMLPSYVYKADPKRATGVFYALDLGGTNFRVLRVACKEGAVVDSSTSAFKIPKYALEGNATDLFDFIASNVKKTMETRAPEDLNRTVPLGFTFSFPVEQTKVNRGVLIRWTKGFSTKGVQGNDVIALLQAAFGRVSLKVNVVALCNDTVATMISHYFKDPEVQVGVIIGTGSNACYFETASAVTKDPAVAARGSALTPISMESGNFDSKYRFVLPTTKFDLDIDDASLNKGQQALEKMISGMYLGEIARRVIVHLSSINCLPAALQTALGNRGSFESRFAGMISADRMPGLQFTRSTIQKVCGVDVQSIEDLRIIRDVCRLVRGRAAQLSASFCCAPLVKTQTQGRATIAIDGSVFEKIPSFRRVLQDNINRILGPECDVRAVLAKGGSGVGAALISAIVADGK

[15] = molecular target: Glucose-6-phosphate 1-dehydrogenase (Homo sapiens, UniProt P11413); test: human G6PD enzyme inhibitors, dose response, selectivity assay for P. falciparum G6PD inhibitor project, biochemical, fluorescence (AID 504792); assay type: functional
[16] = THP-1 cell cytotoxicity, dose response, cytotoxicity control for non-replicating M. tuberculosis project (AID 489025); assay type: functional
[17] = molecular target: Eukaryotic translation initiation factor 4E (Mus musculus, UniProt P63073); test: eIF4E–eIF4G protein interaction inhibitors, dose response, biochemical, TR-FRET (AID 855); assay type: functional;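 note: potency for disrupting eIF4E binding to eIF4GI seen as loss of FRET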
[18] = molecular target: DNA dC->dU-editing enzyme APOBEC-3G (Homo sapiens, UniProt Q9HC16); test: Dose Response confirmation of small molecule APOBEC3G DNA Deaminase Inhibitors via a fluorescence-based single-stranded DNA deaminase assay. [Related pubchem assays (depositor defined):AID493012, AID493028]; assay type: functional
[19] = Vero E6 cell cytotoxicity, dose response, cytotoxicity control for non-replicating M. tuberculosis project, secondary assay (AID 492998); assay type: functional, VeroE6; settings: Vero C1008
[20] = cells; assay type: functional
[21] = molecular target: Mitochondrial peptide methionine sulfoxide reductase (Bos taurus, UniProt P54149); test: Absorbance-based biochemical high throughput dose response assay for activators of Methionine sulfoxide reductase A (MsrA).; assay type: functional
[22] = P. falciparum late gametocyte killing, dose response, luminescence (AID 1117278); assay type: functional, cell-based;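 note: gametocytes exposed to compound for 24 hours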
[23] = Jurkat T cell cytotoxicity, dose response, cytotoxicity control for P. falciparum gametocyte viability project, luminescence (AID 1117277); assay type: functional, cell-based;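 note: potency reflects loss of cellular ATP meaning fewer viable cells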
[24] = molecular target: ATP-sensitive inward rectifier potassium channel 1 (Homo sapiens, UniProt P48048); test: ROMK inhibition by analog compounds, SAR follow-up, cell-based, thallium flux, analog library (AID 435017); assay type: functional
[25] = molecular target: Luciferin 4-monooxygenase (Photinus pyralis, UniProt P08659); test: Counter Screen for Luciferase-based Assay Positives. [Related pubchem assays: 620, 618, 411 ]
[26] = system: HT-1080; test: cytotoxicity in HT1080 fibrosarcoma cells, cell-based, fluorescence readout (AID 620); assay type: functional; settings: Homo sapiens
[27] = molecular target: Galanin receptor type 2 (Homo sapiens, UniProt O43603); test: Dose Response cell-based high-throughput screening assay to identify antagonists of galanin receptor 2 (GALR2). [Related pubchem assays: 828, 866 ]; assay type: functional
[28] = molecular target: Vasopressin V1a receptor (Homo sapiens, UniProt P37288); test: Counterscreen for Oxytocin Receptor (OXTR) agonists: Fluorescence-based cell-based high throughput dose response assay to identify agonists of the vasopressin 1 receptor (V1R). [Related pubchem assays: 2435 (Primary screen (OXTR agonists in singlicate)), 434991 (Counterscreen (V1R agonists in triplicate)), 2482 (Summary (OXTR agonists)) …; assay type: functional
[29] = molecular target: Ion channel NompC (Danio rerio, UniProt Q7T1G6); test: Dose response cell-based high-throughput screening assay for agonists of the transient receptor potential channel N1 (TRPN1). [Related pubchem assays (depositor defined):AID1424, AID1448]; assay type: functional
[30] = molecular target: Oxytocin receptor (Homo sapiens, UniProt P30559); test: Fluorescence-based cell-based high throughput dose response assay for agonists of the Oxytocin Receptor (OXTR). [Related pubchem assays: 2435 (Primary screen (OXTR agonists in singlicate)), 434991 (Counterscreen (V1R agonists in triplicate)), 2482 (Summary (OXTR agonists)), 434963 (Confirmation screen (OXTR agonists in triplicate))]; assay type: functional
[31] = molecular target: T2, Mucolipin-3 (Homo sapiens, UniProt Q8TDD5); test: Fluorescence counterscreen assay for […] agonists: dose response cell-based high-throughput screening assay to identify agonists of the transient receptor potential channel ML3 (TRPML3). [Related pubchem assays: 1424, 1448 ]; assay type: functional
T2 sequence (Q8TDD5 whole entry): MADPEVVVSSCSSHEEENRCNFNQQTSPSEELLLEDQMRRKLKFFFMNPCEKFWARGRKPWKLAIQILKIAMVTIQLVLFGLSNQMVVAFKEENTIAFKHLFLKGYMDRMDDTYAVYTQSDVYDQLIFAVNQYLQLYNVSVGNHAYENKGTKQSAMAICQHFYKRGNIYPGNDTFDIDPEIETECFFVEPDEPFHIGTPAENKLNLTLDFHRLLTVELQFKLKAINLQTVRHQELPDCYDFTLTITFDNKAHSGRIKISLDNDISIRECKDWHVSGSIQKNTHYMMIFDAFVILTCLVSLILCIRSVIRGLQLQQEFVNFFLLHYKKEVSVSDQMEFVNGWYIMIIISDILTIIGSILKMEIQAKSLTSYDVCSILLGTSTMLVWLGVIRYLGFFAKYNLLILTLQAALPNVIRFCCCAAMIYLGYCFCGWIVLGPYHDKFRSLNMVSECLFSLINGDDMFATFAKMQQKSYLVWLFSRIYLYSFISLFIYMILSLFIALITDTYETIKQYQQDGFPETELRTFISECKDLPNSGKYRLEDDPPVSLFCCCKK

[32] = molecular target: 5-hydroxytryptamine receptor 1E (Homo sapiens, UniProt P28566); test: Counterscreen assay for S1P3 antagonists: Dose response cell-based high throughput screening assay to identify antagonists of the 5-Hydroxytryptamine Receptor Subtype 1E (5HT1E). [Related pubchem assays: 1429, 485 ]; assay type: functional
[33] = molecular target: Sphingosine 1-phosphate receptor 3 (Homo sapiens, UniProt Q99500); test: Dose response cell-based high throughput screening assay for antagonists of the Sphingosine 1-Phosphate Receptor 3 (S1P3). [Related pubchem assays: 1429, 485 ]; assay type: functional
[34] = molecular target: Cytochrome P450 2D6 (Homo sapiens, UniProt P10635); test: qHTS Assay for Inhibitors and Substrates of Cytochrome P450 2D6. [Related pubchem assays: 410 ]; assay type: ADME; settings: read-out: Potency
[35] = molecular target: T3, E3 ubiquitin-protein ligase XIAP (Homo sapiens, UniProt P98170); test: Counter Screen using XIAP-Bir3 for Chemical Antagonists of Bir1/2 domains of IAP-family anti-apoptotic proteins. [Related pubchem assays (depositor defined):AID1018, AID1449, AID1514, AID1638, AID1749, AID1750, AID488957, AID488963]
[36] = molecular target: T3, E3 ubiquitin-protein ligase XIAP; test: XIAP antagonists, biochemical, IAP family, fluorescence polarization (AID 1018); assay type: functional
[37] = M. tuberculosis H37Rv growth inhibitors, H37Rv strain (AID 1626); assay type: functional
[38] = molecular target: T4, Heat shock 70 kDa protein 1A (Homo sapiens, UniProt P0DMV8); test: Hsp70 inhibitors, biochemical, TR-FRET (AID 786)
[39] = molecular target: T4, Heat shock 70 kDa protein 1A; test: Hsp70 inhibitors, probe displacement, primary screen, biochemical, fluorescence polarization (AID 583)
[40] = molecular target: Epstein-Barr nuclear antigen 1 (Epstein-Barr virus (strain B95-8) (HHV-4) (Human herpesvirus 4), UniProt P03211); test: EBNA-1 inhibitors, dose response, biochemical, fluorescence polarization, 1536-well (AID 2381); set-up: species or system human gammaherpesvirus 4;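 note: fluorescence polarization of a Cy5 DNA probe bound by EBNA-1 protein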
[41] = molecular target: Lytic switch protein BZLF1 (Epstein-Barr virus (strain B95-8) (HHV-4) (Human herpesvirus 4), UniProt P03206); test: EBV ZTA inhibitors, dose response, counter-screen for EBNA-1 inhibitor project, biochemical, fluorescence polarization, Epstein-Barr virus, 1536-well (AID 2377); set-up: species or system human gammaherpesvirus 4;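 note: fluorescence polarization of Cy5-labelled ZRE DNA probe bound by purified Zta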
[42] = A High Throughput Confirmatory Assay used to Identify Novel Compounds that Inhibit Mycobacterium Tuberculosis in the absence of Glycerol.; assay type: functional
[43] = M. tuberculosis growth inhibition, HTS (AID 449762); assay type: functional

T3 sequence (P98170 whole entry): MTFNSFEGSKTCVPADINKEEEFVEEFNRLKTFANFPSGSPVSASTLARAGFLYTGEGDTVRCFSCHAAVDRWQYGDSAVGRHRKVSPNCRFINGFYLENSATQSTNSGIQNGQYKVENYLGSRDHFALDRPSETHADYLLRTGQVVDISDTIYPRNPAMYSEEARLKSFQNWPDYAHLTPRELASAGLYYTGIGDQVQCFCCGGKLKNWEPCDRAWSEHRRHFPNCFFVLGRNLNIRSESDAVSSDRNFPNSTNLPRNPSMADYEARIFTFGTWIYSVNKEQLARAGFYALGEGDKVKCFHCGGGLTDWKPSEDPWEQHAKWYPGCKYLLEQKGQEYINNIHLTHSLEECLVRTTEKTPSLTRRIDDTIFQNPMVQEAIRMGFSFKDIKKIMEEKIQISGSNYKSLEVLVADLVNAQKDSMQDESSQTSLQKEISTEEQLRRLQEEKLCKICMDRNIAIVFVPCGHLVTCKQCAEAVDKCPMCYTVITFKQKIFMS
T4 sequence (P0DMV8 whole entry): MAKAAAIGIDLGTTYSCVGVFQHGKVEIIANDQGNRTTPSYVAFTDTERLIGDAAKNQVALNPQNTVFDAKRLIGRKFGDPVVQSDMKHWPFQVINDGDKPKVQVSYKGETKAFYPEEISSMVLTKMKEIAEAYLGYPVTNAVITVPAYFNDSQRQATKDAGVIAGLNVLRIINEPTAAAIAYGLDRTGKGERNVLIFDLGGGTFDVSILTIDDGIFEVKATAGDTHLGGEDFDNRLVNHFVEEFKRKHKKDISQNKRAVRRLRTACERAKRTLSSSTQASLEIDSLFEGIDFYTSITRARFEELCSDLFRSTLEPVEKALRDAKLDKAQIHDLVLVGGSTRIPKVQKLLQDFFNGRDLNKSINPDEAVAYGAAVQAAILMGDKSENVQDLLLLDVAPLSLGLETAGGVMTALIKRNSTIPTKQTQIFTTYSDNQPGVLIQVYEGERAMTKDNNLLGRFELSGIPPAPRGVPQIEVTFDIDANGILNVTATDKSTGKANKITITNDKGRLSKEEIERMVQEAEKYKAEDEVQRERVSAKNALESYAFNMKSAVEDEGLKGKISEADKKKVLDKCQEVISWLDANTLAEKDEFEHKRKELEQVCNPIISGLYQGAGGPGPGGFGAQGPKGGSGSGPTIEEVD
5-hydroxytryptamine receptor 1E, sequence (P28566 whole entry): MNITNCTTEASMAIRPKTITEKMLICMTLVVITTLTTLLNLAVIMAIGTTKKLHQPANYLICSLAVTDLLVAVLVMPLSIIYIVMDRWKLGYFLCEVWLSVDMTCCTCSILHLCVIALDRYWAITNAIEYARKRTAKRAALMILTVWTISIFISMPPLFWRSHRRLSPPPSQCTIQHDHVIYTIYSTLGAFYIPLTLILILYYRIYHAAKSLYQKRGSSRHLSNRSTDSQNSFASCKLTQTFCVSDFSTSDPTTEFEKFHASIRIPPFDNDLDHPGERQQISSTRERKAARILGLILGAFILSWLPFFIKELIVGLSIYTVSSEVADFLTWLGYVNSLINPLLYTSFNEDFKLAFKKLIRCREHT
Ion channel NompC, sequence (Q7T1G6 whole entry): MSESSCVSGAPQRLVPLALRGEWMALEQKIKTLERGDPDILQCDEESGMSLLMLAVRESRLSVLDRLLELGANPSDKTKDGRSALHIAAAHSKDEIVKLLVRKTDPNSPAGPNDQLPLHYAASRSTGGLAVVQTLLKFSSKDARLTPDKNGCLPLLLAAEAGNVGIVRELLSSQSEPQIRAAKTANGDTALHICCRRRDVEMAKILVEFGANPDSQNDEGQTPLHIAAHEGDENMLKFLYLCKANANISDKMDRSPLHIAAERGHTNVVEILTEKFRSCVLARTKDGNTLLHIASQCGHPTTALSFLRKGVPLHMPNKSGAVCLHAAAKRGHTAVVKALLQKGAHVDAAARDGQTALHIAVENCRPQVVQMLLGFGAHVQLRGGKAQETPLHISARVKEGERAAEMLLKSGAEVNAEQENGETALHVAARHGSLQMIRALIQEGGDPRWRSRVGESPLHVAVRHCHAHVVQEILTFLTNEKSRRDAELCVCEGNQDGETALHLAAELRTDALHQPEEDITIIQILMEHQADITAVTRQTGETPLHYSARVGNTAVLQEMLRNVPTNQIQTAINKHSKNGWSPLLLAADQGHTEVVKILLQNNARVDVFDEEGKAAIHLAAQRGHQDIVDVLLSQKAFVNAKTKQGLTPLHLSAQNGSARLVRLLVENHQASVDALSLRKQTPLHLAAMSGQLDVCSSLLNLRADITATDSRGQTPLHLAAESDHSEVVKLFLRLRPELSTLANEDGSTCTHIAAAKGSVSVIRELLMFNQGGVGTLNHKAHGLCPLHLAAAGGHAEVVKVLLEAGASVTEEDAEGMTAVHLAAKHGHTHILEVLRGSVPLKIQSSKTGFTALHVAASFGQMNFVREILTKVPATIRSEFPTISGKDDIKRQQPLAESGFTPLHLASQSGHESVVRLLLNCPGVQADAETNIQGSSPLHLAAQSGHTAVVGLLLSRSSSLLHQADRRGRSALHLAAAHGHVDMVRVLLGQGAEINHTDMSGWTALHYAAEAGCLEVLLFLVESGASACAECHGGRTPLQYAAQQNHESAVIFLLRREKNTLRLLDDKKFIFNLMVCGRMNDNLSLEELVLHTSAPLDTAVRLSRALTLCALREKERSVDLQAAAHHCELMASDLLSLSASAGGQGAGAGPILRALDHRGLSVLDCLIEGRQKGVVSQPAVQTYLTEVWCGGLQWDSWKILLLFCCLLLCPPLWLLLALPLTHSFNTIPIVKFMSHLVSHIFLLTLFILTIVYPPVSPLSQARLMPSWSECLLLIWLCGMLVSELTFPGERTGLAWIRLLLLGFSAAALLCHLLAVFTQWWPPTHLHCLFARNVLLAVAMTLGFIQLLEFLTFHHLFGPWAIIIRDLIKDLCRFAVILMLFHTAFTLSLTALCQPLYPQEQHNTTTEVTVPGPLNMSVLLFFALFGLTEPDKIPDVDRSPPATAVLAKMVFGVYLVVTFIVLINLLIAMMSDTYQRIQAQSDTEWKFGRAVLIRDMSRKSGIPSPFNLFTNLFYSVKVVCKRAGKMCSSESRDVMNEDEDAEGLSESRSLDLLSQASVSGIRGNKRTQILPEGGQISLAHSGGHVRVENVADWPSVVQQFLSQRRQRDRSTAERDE
Luciferin 4-monooxygenase, sequence (P08659 whole entry): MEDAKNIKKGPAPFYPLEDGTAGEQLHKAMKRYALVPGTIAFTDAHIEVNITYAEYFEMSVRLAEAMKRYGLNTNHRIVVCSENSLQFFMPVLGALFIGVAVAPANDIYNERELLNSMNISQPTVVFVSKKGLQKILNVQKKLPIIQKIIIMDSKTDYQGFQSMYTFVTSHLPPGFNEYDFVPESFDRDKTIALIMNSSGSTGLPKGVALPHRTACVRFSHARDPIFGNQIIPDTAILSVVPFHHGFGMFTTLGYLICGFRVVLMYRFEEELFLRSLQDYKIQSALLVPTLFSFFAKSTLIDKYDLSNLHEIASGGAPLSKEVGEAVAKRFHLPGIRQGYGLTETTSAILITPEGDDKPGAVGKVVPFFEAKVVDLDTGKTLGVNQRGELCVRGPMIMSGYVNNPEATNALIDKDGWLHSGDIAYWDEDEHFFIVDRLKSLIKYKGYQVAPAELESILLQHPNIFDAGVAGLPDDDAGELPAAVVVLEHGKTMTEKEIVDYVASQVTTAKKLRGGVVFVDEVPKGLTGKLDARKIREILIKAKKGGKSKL
Procathepsin L, sequence (P07711 whole entry): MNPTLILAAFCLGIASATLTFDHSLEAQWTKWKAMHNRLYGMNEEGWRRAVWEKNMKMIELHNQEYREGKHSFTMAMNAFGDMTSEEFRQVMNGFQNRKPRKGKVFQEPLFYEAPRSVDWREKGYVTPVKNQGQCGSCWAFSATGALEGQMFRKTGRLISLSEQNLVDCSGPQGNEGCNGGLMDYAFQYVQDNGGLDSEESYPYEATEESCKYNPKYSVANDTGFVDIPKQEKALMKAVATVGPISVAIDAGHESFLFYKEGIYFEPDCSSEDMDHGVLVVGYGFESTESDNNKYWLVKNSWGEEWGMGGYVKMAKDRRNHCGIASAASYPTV
Eukaryotic translation initiation factor 4E, sequence (P63073 whole entry): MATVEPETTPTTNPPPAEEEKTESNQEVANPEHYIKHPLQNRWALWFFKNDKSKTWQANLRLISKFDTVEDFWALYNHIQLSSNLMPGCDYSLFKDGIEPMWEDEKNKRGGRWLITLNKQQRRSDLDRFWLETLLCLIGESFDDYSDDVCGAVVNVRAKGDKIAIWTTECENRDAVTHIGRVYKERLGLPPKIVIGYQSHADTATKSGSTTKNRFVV
Galanin receptor type 2, sequence (O43603 whole entry): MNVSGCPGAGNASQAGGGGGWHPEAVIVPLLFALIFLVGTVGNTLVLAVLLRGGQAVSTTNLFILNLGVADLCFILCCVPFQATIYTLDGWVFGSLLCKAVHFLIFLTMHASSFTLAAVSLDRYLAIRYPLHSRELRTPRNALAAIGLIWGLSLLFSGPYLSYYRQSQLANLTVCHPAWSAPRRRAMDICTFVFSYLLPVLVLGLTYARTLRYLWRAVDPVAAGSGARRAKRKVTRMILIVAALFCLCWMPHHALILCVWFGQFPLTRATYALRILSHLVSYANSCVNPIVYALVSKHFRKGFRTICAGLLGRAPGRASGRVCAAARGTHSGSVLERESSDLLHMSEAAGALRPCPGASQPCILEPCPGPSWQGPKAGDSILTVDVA
ATP-sensitive inward rectifier potassium channel 1, sequence (P48048 whole entry): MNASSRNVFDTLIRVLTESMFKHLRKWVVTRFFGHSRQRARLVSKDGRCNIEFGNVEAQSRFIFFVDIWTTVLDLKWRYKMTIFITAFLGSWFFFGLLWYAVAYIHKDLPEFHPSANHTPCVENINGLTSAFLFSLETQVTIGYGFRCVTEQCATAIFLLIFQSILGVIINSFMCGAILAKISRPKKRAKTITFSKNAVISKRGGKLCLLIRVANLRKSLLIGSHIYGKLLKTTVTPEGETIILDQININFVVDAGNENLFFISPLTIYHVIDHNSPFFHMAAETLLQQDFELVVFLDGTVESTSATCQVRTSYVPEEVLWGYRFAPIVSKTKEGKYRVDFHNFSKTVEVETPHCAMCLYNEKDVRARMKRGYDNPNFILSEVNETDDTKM

Structure (SMILES): O=C(Cc1cccs1)Nc1nc2c(s1)CCCC2
- CC50 [1]: 17.2 µM (active)
- IC50 [2]: 6.38 µM (active)
- CC50 [3]: > 25 µM (active)
- IC50 [4]: 4.71 µM (active)
- IC50 [5]: 7.09 µM (active)
- CC50 [6]: > 50 µM (active)
- IC50 [7]: 10 µM (active)

Structure (SMILES): Cc1ccccc1-n1sc2cc(F)ccc2c1=O
- IC50 [8]: 648 nM (active)
- IC50 [9]: > 59.6 µM (not active)
- IC50 [10]: 13.1 µM (active)
- CC50 [11]: 13 µM (active)
- IC50 [12]: 8.95 µM (active)
- IC50 [13]: > 100 µM (inactive)
- IC50 [14]: 4.8 µM (active)
- IC50 [15]: 13.9 µM (active)
- CC50 [16]: 19 µM (active)
- IC50 [17]: 36.7 µM (inactive)
- IC50 [18]: 9.02 µM (active)
- CC50 [19]: 12.1 µM (active)
- IC50 [20]: 23.7 µM (active)
- EC50 [21]: > 104 µM (inactive)
- IC50 [22]: 39.6 µM (inactive)
- IC50 [23]: 6.73 µM (active)

Structure (SMILES): COc1ccc([N+](=O)[O-])cc1CN1CCOCCOCCN(Cc2ccc([N+](=O)[O-])cc2OC)CCOCC1
- IC50 [24]: 1.5 µM (active)

Structure (SMILES): Nc1ccc2oc(-c3ccc4[nH]cnc4c3)nc2c1
- EC50 [25]: 11.2 µM (active)
- EC50 [26]: > 50 µM (not active)

Structure (SMILES): C/N=c1\[nH]c2cc([N+](=O)[O-])c([N+](=O)[O-])cc2[nH]\c1=N\C
- IC50 [27]: 1.29 µM (active)
- EC50 [28]: > 29.9 µM (not active)
- EC50 [29]: > 29.9 µM (inactive)
- EC50 [30]: > 29.9 µM (not active)
- EC50 [31]: > 29.9 µM (not active)

Structure (SMILES): CC1CCCCN1C(=O)Cn1cc(C(=O)c2ccco2)c2ccccc21 (stereo not drawn)
- IC50 [32]: > 50 µM (not active)
- IC50 [33]: > 50 µM (not active)

Structure (SMILES): COC(=O)[C@@H]1C[C@H]1[C@@H](NC(=O)OCc1ccccc1)c1ccccc1
- AC50 [34]: 12.6 µM (inconclusive)

Structure (SMILES): O=c1c2ccccc2nnn1CSc1nnc(-c2cccs2)n1Cc1ccccc1
- IC50 [35]: > 100 µM (inactive)
- IC50 [36]: > 100 µM (not active)

Structure (SMILES): CCc1ccc(Nc2c([N+](=O)[O-])c(=O)oc3ccccc23)cc1
- IC50 [37]: > 100 µM (active)

Structure (SMILES): Cc1c(NC(=O)Nc2ccc(Cl)cc2)c(=O)n(-c2ccccc2)n1C
- IC50 [38]: > 100 µM (not active)
- IC50 [39]: > 100 µM (not active)

Structure (SMILES): O=C(Nc1ccc(Oc2ccc3c(c2)C(=O)N(c2ccc(O)cc2)C3=O)cc1)c1cccs1
- IC50 [40]: 15.1 µM (not active)
- IC50 [41]: > 111 µM (not active)

Structure (SMILES): O=c1c2ccccc2nc(/C=C/c2ccccc2)n1-c1ccc(O)cc1
- IC50 [42]: > 50 µM (active)
- IC50 [43]: > 100 µM (active)
